Experimental data as given in paper PMC11478334, “Quaternized Curcumin Derivative—Synthesis, Physicochemical Characteristics, and Photocytotoxicity, Including Antibacterial Activity after Irradiation with Blue Light” (Molecules, 2024).
Read-outs that look alike come from different tables or passages of the source.

Key:
[1] = test system: S. aureus; conditions: cited from earlier work
[2] = test system: P. aeruginosa; conditions: 50 µg/mL; 670 nm; 97.65 J/cm^2; 5 min; cited from earlier work
[3] = cited from earlier work
[4] = design: method as in doi:10.1016/j.synthmet.2008.06.007; conditions: TTF column, cited from earlier work
[5] = test system: Aliivibrio fischeri; assay: Microtox acute toxicity test; format: cell-based; conditions: tested at 1, 10 and 100 µM
Source text: All studied compounds were subjected to a Microtox acute toxicity test. The test is based on bioluminescent Aliivibrio fischeri bacteria, which are very sensitive to the presence of toxic substances. Changes in the toxicity of the environment surrounding the bacterium influence its respiratory processes and translate into the emitted bioluminescence intensity. Therefore, in contact with a toxic substance at a specific concentration, a linear decrease in luminescence is observed. Dimethylsulfoxide was used as a solubilizer of studied compounds in amounts not exceeding 1% v/v. To determine the effect of the solvent alone, 1% DMSO solution in water was also tested.
The acute toxicity of the tested curcumionoids was investigated on a Modern Water Microtox Model 500 apparatus equipped with Modern Water MicrotoxOmni 4.2 software, according to the 81.9% screening test procedure provided by the manufacturer (Modern Water, London, UK). All the reagents and solutions (Microtox Acute Reagent, Microtox Diluent, and Microtox Osmotic Adjusting Solution) were purchased from Tigret (Warsaw, Poland). Solutions of the tested compounds were prepared using DMSO and deionized water. […] Each compound was tested at three final concentrations (1 µM, 10 µM, and 100 µM) and at two time points: 5 min and 15 min. The change in the bacterial bioluminescence was monitored after the addition of the sample solution and compared to the negative control.

O=C([O-])c1c(Cl)c(Cl)c(Cl)c(Cl)c1-c1c2cc(I)c(=O)c(I)c-2oc2c(I)c([O-])c(I)cc12.[Na+].[Na+] [Rose bengal]
Efficiency (log reduction) ([1]; 0.31 µg/mL, 515 nm, 5.8 mW/cm^2, 37 J/cm^3): 6 log | Efficiency (log reduction) ([1]; 0.62 µg/mL, 515 nm, 5.8 mW/cm^2, 18 J/cm^2): 6 log

Cc1cc2nc3ccc(N(C)C)cc3[s+]c2cc1N.[Cl-] [Toluidine blue]
Efficiency (log reduction) ([1]; 50 µg/mL, 670 nm, 97.65 J/cm^2, 5 min): 2.66 log | Efficiency (log reduction) [2]: 2.36 log

[Zn+2].c1ccc2c(c1)-c1nc-2nc2[n-]c(nc3nc([n-]c4nc(n1)-c1ccccc1-4)-c1ccccc1-3)c1ccccc21 [ZnPc, zinc(II) phthalocyanine]
10^−5 Φp (photodecomposition quantum yield) ([3]; DMF): 1.02 [38] 10^−5 | ΦP (photodecomposition quantum yield) ([3]; DMF): 10.2 × 10^−6 | 10^−5 Φp (photodecomposition quantum yield) ([3]; DMSO): 0.35 [39] 10^−5 | ΦP (photodecomposition quantum yield) ([3]; DMSO): 3.5 × 10^−6 | singlet oxygen quantum yield ([4]; DMF): 0.56 [39] | singlet oxygen quantum yield ([4]; DMSO): 0.67 [39]

COc1cc(C=CC2=CC(C=Cc3ccc(O)c(OC)c3)=[O+][B-](F)(F)O2)ccc1O [curcumin–BF2 complex, reference compound]
acute toxicity / ecotoxicity verdict [5]: toxic at every concentration tested
